The test system of one data set is thrombus formation. The conditions noted are these: cited from earlier work.
In data set [1] the test system is phospho-VASP (serine 157) in washed human platelets. In words: Vasodilator-stimulated phosphoprotein phosphorylation in human platelets (Western blot). The conditions noted are these: washed human platelets treated for one minute; 5 nm to 20 μM tested. The data set is classed as cell-based. How it is done:
Citrated whole blood was centrifuged (200 g for 10 min) to isolate platelet-rich plasma. Platelet-rich plasma was treated with acid citrate dextrose (2.5% sodium citrate, 1.5% citric acid, 2.0% D-glucose) and apyrase (0.02 U/mL), and then centrifuged (2000 g for 10 mins) to pellet the platelets. Platelets were resuspended at 3.0×10^8 platelets/mL in Tyrode's buffer (10 mM HEPES, 12 mM NaHCO3, 127 mM NaCl, 5 mM KCl, 0.5 mM NaH2PO4, 1 mM MgCl2, and 5 mM glucose) unless otherwise stated.
Washed platelets were treated with forskolin (0.5 μM), 12-HETre (20 μM), or compound A3 (5 nm, 10 nm, 25 nm, 50 nm, 100 n, 250 nm, 1 μM, 5 μM, 10 μM, and 20 μM) for one minute, then directly lysed in 5× Laemmli sample buffer (1.5 M Tris-HCl, pH 6.8, glycerol, 5% β-mercaptoethanol, 10% sodium dodecyl sulfate (SDS), and 1% bromophenol blue). The samples were boiled for five minutes and then run on a 10% SDS-PAGE gel. The levels of total and phospho-VASP (serine 157) were quantified by Western Blot using an Odyssey imaging system (LI-CoR). […] Compound A3 induced VASP phosphorylation at a concentration as low as 10 nm.
For orientation: A western blot detects proteins with antibodies after separation by electrophoresis.

Data set [2] can be described thus: Pharmacokinetic study: compound concentration in mouse blood plasma after PO and IV administration. The data set is classed as in vivo, mice. The conditions noted are these: for Concentration in Plasma, Mouse 2: value marked as outlier; for concentration at 2 h / concentration at 4 h / concentration at 7 h: mouse, plasma, 30 mg/kg. The procedure:
The blood plasma concentration of compound A3 in mice was determined following per os, oral compound administration (“PO”) and intravenous (“IV”) administration
Calibration curve. The concentration range was evaluated from 1-5000 ng/ml for compound A3. The curve was built with linear regression with weighing (1/X2). The linear regression analysis was performed by plotting the peak area ratio (y) against the concentration (x) in ng/mL.
Instrument Conditions. The LC-MS and mass spectrometry conditions for the compounds tested are shown below.
Results. The individual and average compound A3 concentration-time data for IV and PO dosed groups are listed in Table 1, and graphically presented in FIG. 1.

A further data set concerns platelets. The settings on record: cited from earlier work.

Data on three molecules can be found in US12269805B2, “Inhibitors of platelet function and methods for use of the same” (THE REGENTS OF THE UNIVERSITY OF MICHIGAN, priority 2018, dated 2025).

Like-named read-outs stand apart in the source and are kept apart here.

As to `CCCCC/C=C\C[C@H](O)/C=C/C=C\CCCCCCC(=O)O` [Compound 12-HETrE, 12(S)-hydroxyeicosatetrienoic acid], the “Thrombus formation following vessel injury” value in the data set with thrombus formation (irrespective of 12-LOX expression) was “potently impaired thrombus formation”.
Take `CC(C)N(CCCCSc1n[nH]c(=O)[nH]1)c1cnc(-c2ccccc2)c(-c2ccccc2)n1` [Compound A3, 5-((4-((5,6-diphenylpyrazin-2-yl)(isopropyl)amino)butyl)thio)-2,4-dihydro-3H-1,2,4-triazol-3-one]: the “Lowest concentration that induced VASP phosphorylation” value in data set [1] stood at 10 nm. Besides, the “Concentration in Plasma, Mouse 2” value is “*809.0 ng/ml” in data set [2] (PO 30 mg/kg, 2 h) and “*812.7 ng/ml” in data set [2] (PO 30 mg/kg, 4 h). In addition, the concentration at 2 h was found to be 164 ng/mL in data set [2] (iv, IV 30 mg/kg, 2 h, n=3, read-out: Concentration in Plasma, Mean); 203 ng/mL in data set [2] (iv, IV 30 mg/kg, 2 h, read-out: Concentration in Plasma, Mouse 1); 158 ng/mL in data set [2] (iv, IV 30 mg/kg, 2 h, read-out: Concentration in Plasma, Mouse 2); 131 ng/mL in data set [2] (iv, IV 30 mg/kg, 2 h, read-out: Concentration in Plasma, Mouse 3); 119 ng/mL in data set [2] (po, PO 30 mg/kg, 2 h, outlier left out, read-out: Concentration in Plasma, Mean); 186 ng/mL in data set [2] (po, PO 30 mg/kg, 2 h, read-out: Concentration in Plasma, Mouse 1). In addition, in data set [2] (po, PO 30 mg/kg, 2 h, read-out: Concentration in Plasma, Mouse 3), the concentration at 2 h is 52.5 ng/mL. In addition, the concentration at 4 h came out at 106 ng/mL in data set [2] (iv, IV 30 mg/kg, 4 h, n=3, read-out: Concentration in Plasma, Mean); 135 ng/mL in data set [2] (iv, IV 30 mg/kg, 4 h, read-out: Concentration in Plasma, Mouse 1); 80.3 ng/mL in data set [2] (iv, IV 30 mg/kg, 4 h, read-out: Concentration in Plasma, Mouse 2); 102 ng/mL in data set [2] (iv, IV 30 mg/kg, 4 h, read-out: Concentration in Plasma, Mouse 3); 34.5 ng/mL in data set [2] (po, PO 30 mg/kg, 4 h, outlier left out, read-out: Concentration in Plasma, Mean); 46.5 ng/mL in data set [2] (po, PO 30 mg/kg, 4 h, read-out: Concentration in Plasma, Mouse 1). The concentration at 4 h in data set [2] (po, PO 30 mg/kg, 4 h, read-out: Concentration in Plasma, Mouse 3) was found to be 22.5 ng/mL. The concentration at 7 h in data set [2] (iv, IV 30 mg/kg, n=3, read-out: Concentration in Plasma, Mean) stood at 97.6 ng/mL; in data set [2] (iv, IV 30 mg/kg, read-out: Concentration in Plasma, Mouse 1), 123 ng/mL; in data set [2] (iv, IV 30 mg/kg, read-out: Concentration in Plasma, Mouse 2), 76.9 ng/mL; in data set [2] (iv, IV 30 mg/kg, read-out: Concentration in Plasma, Mouse 3), 92.7 ng/mL; in data set [2] (po, PO 30 mg/kg, n=3, read-out: Concentration in Plasma, Mean) it was 28.3 ng/mL; in data set [2] (po, PO 30 mg/kg, read-out: Concentration in Plasma, Mouse 1), 46.3 ng/mL. In addition, the concentration at 7 h in data set [2] (po, PO 30 mg/kg, read-out: Concentration in Plasma, Mouse 2) came out at 19.1 ng/mL; in data set [2] (po, PO 30 mg/kg, read-out: Concentration in Plasma, Mouse 3) it was 19.3 ng/mL.
For `CCCCC/C=C\C/C=C\C/C=C\CCCCCCC(=O)O` [DGLA, Dihomo-γ-linolenic acid], in the data set with platelets, the “Platelet aggregation ex vivo” value is “inhibit platelet aggregation ex vivo”. Further, the Thrombus formation entry in the data set with thrombus formation (12-LOX−/− mice) was “unable to inhibit thrombus formation”. Further, the “Platelet thrombus formation in vivo” value in the data set with thrombus formation (following an insult to the vessel wall) was “inhibited platelet thrombus formation in vivo”.
